According to PMC7660103, “Discovery of Novel 3-Cyanopyridines as Survivin Modulators and Apoptosis Inducers” (Molecules, 2020):

What was measured:
[1] = test system: hepatocellular carcinoma (HepG2) cells; assay: SRB cytotoxicity assay, HepG2; format: cell-based, human; details: for IC50: SRB assay, 72 h, mean ± SD of three experiments; for Selectivity Index HepG2: SI = IC50 on WI-38/IC50 on HepG2
Protocol: (§1) In the present work, sulforhodamine B (SRB) colorimetric assay was done to evaluate the cytotoxic activity of the synthesized 3-cyano pyridines 4a–4e, 5a–5e, and 6a–6e on three human cancer cell lines: prostate carcinoma (PC-3), breast cancer (MDA-MB-231) and hepatocellular carcinoma (HepG2) cell lines. 5-FU was used as a standard drug for comparison.
(§2) Human cancer cells were obtained from Nawah Scientific Inc. (Mokatam, Cairo, Egypt). Cells were maintained in DMEM media containing […] streptomycin, 100 units/mL penicillin, and 10% heat-inactivated fetal bovine serum in humified, 5% (v/v) CO2 atmosphere at 37 °C.
(§3) Cell viability was estimated using the SRB assay. Aliquots of 100 µL cell suspension (5 × 10^3 cells) in 96-well plates were incubated in complete media for 24 h. Cells were treated with a second aliquot of 100 µL media containing various concentrations of the tested compounds (0.01, 0.1, 1, 10, and 100 μM). After 72 h, cells were fixed by replacing media with 15 µL of 10% TCA and then incubated at 4 °C for 1 h. After that, TCA solution was removed, and the cells were washed 5 times with distilled water. Aliquots of 70 µL SRB solution (0.4% w/v) were added and incubated in a dark place at room temperature for 10 min. Plates were washed 3 times with 1% acetic acid and allowed to air dry overnight. Then, 150 µL of TRIS (10 mM) was added to dissolve protein-bound SRB stain. The absorbance was measured at 540 nm using BMG LABTECH®-FLUO star Omega microplate reader (Ortenberg, Germany).

[2] = test system: breast cancer (MDA-MB-231) cells; assay: SRB cytotoxicity assay, MDA-MB-231; format: cell-based, human; details: for IC50: SRB assay, 72 h, mean ± SD of three experiments; for Selectivity Index MDA-MB-231: SI = IC50 on WI-38/IC50 on MDA-MB-231
Protocol: as §1, §2, §3

[3] = test system: prostate carcinoma (PC-3) cells; assay: SRB cytotoxicity assay, PC-3; format: cell-based, human; details: for IC50: SRB assay, 72 h, mean ± SD of three experiments; for Selectivity Index PC-3: SI = IC50 on WI-38/IC50 on PC-3
Protocol: as §1, §2, §3

[4] = test system: normal cell line WI-38; assay: SRB cytotoxicity assay, normal cell line WI-38; format: cell-based
Protocol: The cytotoxicity of the newly synthesized compounds on the normal cell line WI-38 was also evaluated in order to examine the safety of these compounds.
as §3

[5] = Homo sapiens, WI-38, mean ± SD of three experiments

Structure (SMILES) | IC50 ([1]; Homo sapiens, HepG2, 72 h) | Selectivity Index HepG2 [1] | IC50 ([2]; Homo sapiens, MDA-MB-231, 72 h) | Selectivity Index MDA-MB-231 [2] | IC50 ([3]; Homo sapiens, PC-3) | Selectivity Index PC-3 [3] | IC50 [4, 5] | melting point | IC50 [1] | IC50 [2] | IC50 [3] | IC50 ([4]; mean ± SD of three experiments)
N#Cc1c(-c2ccc(Cl)cc2)cc(-c2ccc(OCc3ccc(F)cc3)cc2)[nH]c1=S [Compound 6c, 4-(4-Chlorophenyl)-6-(4-((4-fluorobenzyl)oxy)phenyl)-2-thioxo-1,2-dihydropyridine-3-carbonitrile] | 38 ± 0.94 µM | 2.35 | 42 ± 0.48 µM | 2.13 | 41.9 ± 0.61 µM | 2.13 | 89.6 ± 2.75 µM |  |  |  |  | 
N#Cc1c(-c2ccc(F)cc2)cc(-c2ccc(OCc3ccc(F)cc3)cc2)nc1N [Compound 4b, 2-Amino-6-(4-((4-fluorobenzyl)oxy)phenyl)-4-(4-fluorophenyl)nicotinonitrile] | > 100 µM |  | > 100 µM |  | > 100 µM |  | 127 ± 3.6 µM | 125 to 127 °C |  |  |  | 
O=c1[nH]cc(F)c(=O)[nH]1 [Compound 5-FU, reference compound] |  |  |  |  |  |  |  |  | 7.51 ± 0.11 µM | 9.35 ± 0.74 µM | 8.83 ± 0.09 µM | 7.91 ± 1.8 µM
N#Cc1c(-c2ccccc2)cc(-c2ccc(OCc3ccc(F)cc3)cc2)nc1N [Compound 4a, 2-Amino-6-(4-((4-fluorobenzyl)oxy)phenyl)-4-phenylnicotinonitrile] | 109 ± 0.35 µM | 1.50 | > 100 µM |  | > 100 µM |  | 164 ± 4.5 µM |  |  |  |  | 
COc1ccc(-c2cc(-c3ccc(OCc4ccc(F)cc4)cc3)nc(N)c2C#N)cc1 [Compound 4e, 2-Amino-6-(4-((4-fluorobenzyl)oxy)phenyl)-4-(4-methoxyphenyl)nicotinonitrile] | > 100 µM |  | > 100 µM |  | > 100 µM |  | 94.7 ± 2.5 µM |  |  |  |  | 
N#Cc1c(-c2ccc(Br)cc2)cc(-c2ccc(OCc3ccc(F)cc3)cc2)[nH]c1=S [Compound 6d, 4-(4-Bromophenyl)-6-(4-((4-fluorobenzyl)oxy)phenyl)-2-thioxo-1,2-dihydropyridine-3-carbonitrile] | 86 ± 0.15 µM | 1.69 | 71.2 ± 0.56 µM | 2.04 | 99 ± 0.19 µM | 1.47 | 146 ± 4.55 µM |  |  |  |  | 
COc1ccc(-c2cc(-c3ccc(OCc4ccc(F)cc4)cc3)[nH]c(=S)c2C#N)cc1 [Compound 6e, 6-(4-((4-Fluorobenzyl)oxy)phenyl)-4-(4-methoxyphenyl)-2-thioxo-1,2-dihydropyridine-3-carbonitrile] | 40.3 µM | 2.57 | 23.4 µM | 4.43 | 35.9 ± 0.92 µM | 2.89 | 104 ± 3.16 µM |  | 40.3 ± 0.99 µM | 23.4 ± 0.7 µM |  | 
N#Cc1c(-c2ccccc2)cc(-c2ccc(OCc3ccc(F)cc3)cc2)[nH]c1=O [Compound 5a, 6-(4-((4-Fluorobenzyl)oxy)phenyl)-2-oxo-4-phenyl-1,2-dihydropyridine-3-carbonitrile] | 30 ± 0.59 µM | 5.80 | 52 ± 0.4 µM | 3.34 | 47.5 ± 0.611 µM | 3.66 | 174 ± 4.62 µM |  |  |  |  | 
N#Cc1c(-c2ccc(Cl)cc2)cc(-c2ccc(OCc3ccc(F)cc3)cc2)nc1N [Compound 4c, 2-Amino-4-(4-chlorophenyl)-6-(4-((4-fluorobenzyl)oxy)phenyl)nicotinonitrile] | 62 ± 0.61 µM | 2.20 | > 100 µM |  | > 100 µM |  | 137 ± 4.15 µM |  |  |  |  | 
N#Cc1c(-c2ccccc2)cc(-c2ccc(OCc3ccc(F)cc3)cc2)[nH]c1=S [Compound 6a, 6-(4-((4-Fluorobenzyl)oxy)phenyl)-4-phenyl-2-thioxo-1,2-dihydropyridine-3-carbonitrile] | 60 ± 0.1 µM | 1.62 | 72 ± 0.52 µM | 1.35 | > 100 µM |  | 97.4 ± 2.88 µM |  |  |  |  | 
N#Cc1c(-c2ccc(Br)cc2)cc(-c2ccc(OCc3ccc(F)cc3)cc2)[nH]c1=O [Compound 5d, 4-(4-Bromophenyl)-6-(4-((4-fluorobenzyl)oxy)phenyl)-2-oxo-1,2-dihydropyridine-3-carbonitrile] | 27.3 ± 0.74 µM | 6.63 | 34.8 ± 0.9 µM | 5.20 | 30.2 ± 0.85 µM | 5.99 | 181 ± 4.55 µM |  |  |  |  | 
N#Cc1c(-c2ccc(Br)cc2)cc(-c2ccc(OCc3ccc(F)cc3)cc2)nc1N [Compound 4d, 2-Amino-4-(4-bromophenyl)-6-(4-((4-fluorobenzyl)oxy)phenyl)nicotinonitrile] | 66 ± 0.12 µM | 1.57 | 30 ± 0.18 µM | 3.46 | 53 ± 1.12 µM | 1.96 | 104 ± 3.16 µM |  |  |  |  | 
N#Cc1c(-c2ccc(F)cc2)cc(-c2ccc(OCc3ccc(F)cc3)cc2)[nH]c1=O [Compound 5b, 6-(4-((4-Fluorobenzyl)oxy)phenyl)-4-(4-fluorophenyl)-2-oxo-1,2-dihydropyridine-3-carbonitrile] | 21.8 ± 0.67 µM | 6.02 | 26.3 ± 0.73 µM | 4.99 | 34.2 ± 0.45 µM | 3.84 | 132 ± 4.12 µM |  |  |  |  | 
N#Cc1c(-c2ccc(F)cc2)cc(-c2ccc(OCc3ccc(F)cc3)cc2)[nH]c1=S [Compound 6b, 6-(4-((4-Fluorobenzyl)oxy)phenyl)-4-(4-fluorophenyl)-2-thioxo-1,2-dihydropyridine-3-carbonitrile] | 41 ± 0.69 µM | 5.01 | 66.7 ± 0.12 µM | 3.08 | 60 ± 0.93 µM | 3.42 | 206 ± 4.73 µM |  |  |  |  | 
